From PubChem BioAssay AID743479 (Broad Institute, 2014) come the findings set out here.

Inconclusive results are not listed. Calls of active or inactive are those of the source.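 How the source made its calls: active means fitted curve crosses 35% inhibition of luciferase signal below 10 µM, corrected for cell viability; inconclusive means no clear call, values can overlap the other calls; inactive means activity opposite to the expected decrease, otherwise the rest.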

The test system of one assay is A673 NR0B1-luciferase reporter, viability-normalised luminescence. The experiment in a line: inhibitors of EWS/FLI-driven NR0B1 reporter expression, dose response, luciferase luminescence, A673 cells, dry powder (AID 743479).
Conditions: not given
With `N#CC1=C(N)Oc2cc(N)ccc2C1c1cccc(F)c1` (stereo not given), the AC35 is 1.2 µM.
Same read-out and setting: for `O=C(Nc1c(Cl)cncc1Cl)c1ccc(OC(F)F)c(OCC2CC2)c1` the value was 56.9 µM; for `COc1ccc(S(=O)(=O)N2CC[C@@H]3[C@@H](CO)N(C)c4ccc(-c5ccc(F)cc5)cc4[C@@H]32)cc1`, 2.85 µM.
With `CCc1c2c(nc3ccc(O)cc13)-c1cc3c(c(=O)n1C2)COC(=O)C3(O)CC` (stereo not given), the AC35 is 0.00781 µM.
Consider `COc1ccc(S(=O)(=O)N2CC[C@@H]3[C@@H](CO)Nc4ccc(-c5cccc(C#N)c5)cc4[C@@H]32)cc1`, for which the AC35 was 4.71 µM.
On to `COc1ccccc1S(=O)(=O)N1CC[C@@H]2[C@@H](CO)Nc3ccc(-c4ccc(C#N)cc4)cc3[C@@H]21`, for which the AC35 is 15.5 µM.
Take `CN(C(=O)CCCOc1ccc2[nH]c(=O)ccc2c1)C1CCCCC1`: the AC35 is 49.6 µM.
With `COc1cc([C@@H]2c3cc4c(cc3[C@@H](O[C@@H]3O[C@@H]5CO[C@@H](C)O[C@H]5[C@H](O)[C@H]3O)[C@H]3COC(=O)[C@H]23)OCO4)cc(OC)c1O`, the AC35 is 3.01 µM.
With `COc1ccc(C2=Nn3c(nnc3-c3ccccc3Cl)SC2)cc1OC`, the AC35 is 0.69 µM.
On the same count and under the same terms, then `COc1ccc(NC(=O)Nc2ccc3c(c2)C(=O)N([C@@H](C)CO)C[C@H](C)[C@H](CN(C)Cc2ccc4c(c2)OCO4)O3)cc1`, with 18.8 µM; and `CC[C@@]1(O)C(=O)OCc2c1cc1n(c2=O)Cc2cc3c(CN(C)C)c(O)ccc3nc2-1`, with 0.112 µM; and `COc1ccc(C2C(C#N)=C(N)Oc3cc(N)ccc32)cc1` (stereo not given), with 53.2 µM.
On the same count and under the same terms, then `COc1ccccc1C1C(C#N)=C(N)Oc2cc(N)ccc21` (stereo not given), with 53.1 µM; and `CC(C)N1c2ccccc2C(c2ccc(F)cc2)C1/C=C/C(O)CC(O)CC(=O)O` (stereo not given), with 7.59 µM.
As to `O=C(c1cc(Cc2n[nH]c(=O)c3ccccc23)ccc1F)N1CCN(C(=O)C2CC2)CC1`, the AC35 is 238 µM.
`CCOC(=O)CCNc1cc(N2CCc3ccccc3CC2)nc(-c2ccccn2)n1`: the AC35 is 32.8 µM.
With `N#CC1=C(N)Oc2cc(O)ccc2C1c1cccc(Br)c1` (stereo not given), the AC35 is 2.2 µM.
The same measure, in the same setting: then `N#CC1=C(N)Oc2cc(OC(=O)c3ccccc3)ccc2C1c1cccc(Br)c1` (stereo not given), with 3.55 µM.
Turning to `N#CC1=C(N)Oc2ccc3ccccc3c2C1c1cccc(F)c1` (stereo not given), the AC35 is 0.968 µM.
With `CN1c2ccc(-c3ccc(C#N)cc3)cc2[C@H]2[C@H](CCN2S(=O)(=O)c2cccc(F)c2)[C@H]1CO`, the AC35 is 2.35 µM.
Still for that read-out and setting: for `COc1ccc(C(=O)CC2(O)C(=O)Nc3c(Cl)ccc(Cl)c32)cc1` (stereo not given) the value was 3.21 µM; for `COc1cccc(C2C(C#N)=C(N)Oc3cc(N)ccc32)c1` (stereo not given), 0.629 µM; for `CCC(C)C(=O)OC1CC(C)C=C2C=CC(C)C(CCC(O)CC(O)CC(=O)O)C21` (stereo not given), 55.5 µM.
For `CN1CCN(CCOc2cc(OC3CCOCC3)c3c(Nc4c(Cl)ccc5c4OCO5)ncnc3c2)CC1`, the AC35 is 17.3 µM.
With `COc1ccccc1-c1nnc2n1N=C(c1ccc(O)c(O)c1)CS2`, the AC35 is 3.93 µM.
For `Cn1cc(-c2ccncc2)c(-c2ccc(OCc3ccc4ccccc4n3)cc2)n1`, the AC35 was 51.7 µM.
As for `Cc1ccccc1C1C(C#N)=C(N)Oc2cc(N)ccc21` (stereo not given), the AC35 is 40.9 µM.
As for `N#CC1=C(N)Oc2cc(N)ccc2C12C(=O)Nc1ccc(Br)cc12` (stereo not given), the AC35 is 43.3 µM.
The same measure, in the same setting: then `N#Cc1ccc(-c2ccc3c(c2)[C@H]2[C@H](CCN2S(=O)(=O)c2cccc(F)c2)[C@@H](CO)N3)cc1`, with 4.95 µM; and `N#CC1=C(N)Oc2cc(N)ccc2C1c1ccc2ccccc2c1` (stereo not given), with 19.4 µM.
The same measure, in the same setting: then `CN(C)c1ccc2c(c1)OC(N)=C(C#N)C2c1cccc(F)c1` (stereo not given), with 0.0309 µM; and `C[C@@]1(C(=O)Nc2ccc(F)nc2)CCCN1c1nc(Nc2cc(C3CC3)[nH]n2)c2cccn2n1`, with 2.9 µM; and `COc1ccc(C2=Nn3c(nnc3-c3ccccc3OC)SC2)cc1OC`, with 0.131 µM.
For the compound `COc1ccc(S(=O)(=O)N2CC[C@@H]3[C@H](CO)Nc4ccc(-c5ccc(C#N)cc5)cc4[C@@H]32)cc1`, the AC35 was 8.44 µM.
Take `N#Cc1ccc(-c2ccc3c(c2)[C@H]2[C@H](CCN2S(=O)(=O)c2ccccc2F)[C@@H](CO)N3)cc1`: the AC35 was 7.82 µM.
On to `COc1ccc(CNc2nc(N3CCC[C@H]3CO)ncc2C(=O)NCc2ncccn2)cc1Cl`, for which the AC35 is 45.2 µM.
For `N#CC1=C(N)Oc2cc(N)ccc2C1c1ccccc1` (stereo not given), the AC35 is 16.6 µM.
Regarding `N#CC1=C(N)Oc2cc3c(cc2C1c1cccc(Br)c1)OCO3` (stereo not given), the AC35 was 0.0564 µM.
On the same count and under the same terms, for `Clc1ccccc1-c1nnc2n1N=C(c1ccc3c(c1)OCO3)CS2` the value was 0.75 µM; for `COc1ccc(S(=O)(=O)N(C(C)=O)c2ccc(OC(C)=O)c3ccccc23)cc1[N+](=O)[O-]`, 2.81 µM.
In the case of `Nc1ncnc2c1c(-c1cccc(OCc3ccccc3)c1)cn2C1CC(CN2CCCC2)C1` (stereo not given), the AC35 was 17.3 µM.
As for `Cc1ccc(C2C(C#N)=C(N)Oc3cc(N)ccc32)cc1` (stereo not given), the AC35 is 54.6 µM.
For `COC(=O)c1ccc(C2C(C#N)=C(N)Oc3cc(N)ccc32)cc1` (stereo not given), the AC35 was 40.2 µM.
Still for that read-out and setting: then `Cc1cc(Nc2cc(N3CCN(C)CC3)nc(Sc3ccc(NC(=O)C4CC4)cc3)n2)n[nH]1`, with 39.5 µM; and `CC1(C)CC(c2nc(-c3ccc4ccc(-c5ccccc5)nc4c3)c3c(N)nccn23)C1`, with 37.9 µM.
As for `COc1ccc(OC)c(-c2nnc3n2N=C(c2ccc(OC)c(OC)c2)CS3)c1`, the AC35 is 0.0319 µM.
As to `COc1ccc(-c2ccc3c(c2)[C@H]2[C@H](CCN2S(=O)(=O)c2ccc(OC)cc2)[C@@H](CO)N3C)cc1`, the AC35 was 4.43 µM.
As for `Nc1ccn([C@@H]2O[C@H](CO)[C@H](O)C2O)c(=O)n1` (stereo not given in full), the AC35 was 1.26 µM.
Same read-out and setting: then `COc1cccc2c1C(=O)c1c(O)c3c(c(O)c1C2=O)C[C@@](O)(C(=O)CO)C[C@@H]3O[C@H]1C[C@H](N)[C@H](O)[C@H](C)O1`, with 15.1 µM; and `COc1ccc(-c2cc(NC=O)c3ncc(-c4ccc(OC)c(OC)c4)n3c2)cc1`, with 0.778 µM.
Still for that read-out and setting: then `N#CC1=C(N)Oc2cc(N)ccc2C1c1ccc(Cl)cc1` (stereo not given), with 43 µM; and `COc1ccc(S(=O)(=O)N2CC[C@@H]3[C@@H](CO)Nc4ccc(-c5ccc(C#N)cc5)cc4[C@@H]32)cc1`, with 3.37 µM.
`COc1cc(C2C(C#N)=C(N)Oc3cc(N(C)C)ccc32)cc2c1OCO2` (stereo not given): the AC35 was 0.186 µM.
Regarding `Cc1nc(Nc2ncc(C(=O)Nc3c(C)cccc3Cl)s2)cc(N2CCN(CCO)CC2)n1`, the AC35 is 18.9 µM.
The same measure, in the same setting: then `CN1c2ccc(-c3ccc(C#N)cc3)cc2[C@H]2[C@H](CCN2S(=O)(=O)c2ccc(F)cc2)[C@H]1CO`, with 33.6 µM; and `Cc1ccc([N+](=O)[O-])cc1S(=O)(=O)N(C)C`, with 59.7 µM; and `N#CC1=C(N)Oc2cc(N)ccc2C1c1cccc(Br)c1` (stereo not given), with 0.223 µM.
In the case of `COc1cccc(S(=O)(=O)N2CC[C@@H]3[C@@H](CO)Nc4ccc(-c5ccc(C#N)cc5)cc4[C@@H]32)c1`, the AC35 is 28.5 µM.
`N#CC1=C(N)Oc2cc(N)ccc2C1c1ccccc1Cl` (stereo not given): the AC35 was 26.6 µM.
Take `COc1ccc(C2=Nn3c(nnc3-c3ccccc3F)SC2)cc1OC`: the AC35 was 11.5 µM.
For `COc1ccccc1-c1nnc2n1N=C(c1ccc3c(c1)OCO3)CS2`, the AC35 is 0.0242 µM.
As to `CCC(C)(C)C(=O)O[C@H]1C[C@@H](C)C=C2C=C[C@H](C)[C@H](CC[C@@H]3C[C@@H](O)CC(=O)O3)[C@H]21`, the AC35 was 55 µM.
On the same count and under the same terms, then `COc1ccc(C2=Nn3c(nnc3-c3ccccc3)SC2)cc1OC`, with 42.7 µM; and `Cc1cccc(C2C(C#N)=C(N)Oc3cc(N)ccc32)c1` (stereo not given), with 0.705 µM; and `COc1ccc(-c2ccc3c(c2)[C@H]2[C@H](CCN2S(=O)(=O)c2ccc(OC)cc2)[C@@H](CO)N3)cc1`, with 3.57 µM.
Take `Cc1ccc(S(=O)(=O)N2CC[C@@H]3[C@@H](CO)Nc4ccc(-c5ccc(C#N)cc5)cc4[C@@H]32)cc1`: the AC35 is 17.2 µM.

System in another assay: not listed separately
Described as above. The conditions noted are these: A673 NR0B1-luciferase reporter, viability-normalised luminescence; at 4.2 µM (top of the series).
In the case of `CCN(CCO)CCCOc1ccc2c(Nc3cc(CC(=O)Nc4cccc(F)c4)[nH]n3)ncnc2c1`, the activity change, negative = inhibition is 0.506% (inactive).

Still in this assay, the particulars now being: A673 NR0B1-luciferase reporter, viability-normalised luminescence; at 6.8 µM (top of the series).
Consider `C=C([C@@H](O)[C@@H](C)O)[C@@H](OC)[C@]1(C)Cc2cc3cc(O[C@H]4CC(OC5CC(O)C(O)C(C)O5)C(O)C(C)O4)cc(O)c3c(O)c2C(=O)[C@H]1OC1CC(OC2CC(OC3CC(C)(O)C(O)C(C)O3)C(O)C(C)O2)C(O)C(C)O1` (stereo not given in full), for which the activity change, negative = inhibition is 12.4% (inactive).

The assay is the same for the next values; noted with them: A673 NR0B1-luciferase reporter, viability-normalised luminescence; at 16 µM (top of the series).
As to `Clc1ccc(-c2cnc3ccc(-c4ccccc4)cn23)cc1`, the activity change, negative = inhibition was 38.6% (inactive).

Still in this assay, the particulars now being: A673 NR0B1-luciferase reporter, viability-normalised luminescence; at 68 µM (top of the series).
In the case of `COc1ccc(-c2cc(NC(C)=O)c3ncc(-c4ccc(OC)c(OC)c4)n3c2)cc1`, the activity change, negative = inhibition is -21.4% (inactive).
For the compound `COc1cc(Nc2ncc3c(n2)-c2ccc(Cl)cc2C(c2c(F)cccc2OC)=NC3)ccc1C(=O)O`, the activity change, negative = inhibition was 114% (inactive).
Still for that read-out and setting: for `C[C@]1(c2nc3c(C(N)=O)cccc3[nH]2)CCCN1` the value was -14.9% (inactive); for `CCCCc1ccc2nc(NC(=O)OC)[nH]c2c1`, -8.52% (inactive); for `COc1ccc(C2CNC(=O)C2)cc1OC1CCCC1` (stereo not given), -4.33% (inactive).

The same assay, now with this note: A673 NR0B1-luciferase reporter, viability-normalised luminescence; at 135 µM (top of the series).
As to `O=P1(NCCCl)OCCCN1CCCl` (stereo not given), the activity change, negative = inhibition is 11.8% (inactive).
